In data set [1] the target is T1, A2A adenosine receptor (Sus scrofa, UniProt K9IW67).
T1 construct: from tissue; host or cells: pig striatum membranes
Description: Affinity for the A2A receptor in a pig striatum membrane prep (displacement of tritiated ZM 241385). Format: binding. To be noted: pig striatal membranes, [3H]ZM 241385 2 nM, 23° C. 2h, Ki from IC50. Here is the method:
Compositions of this invention were assayed to determine their affinity for the A2A receptor in a pig striatum membrane prep. 0.2 mg of pig striatal membranes were treated with adenosine deaminase and 50 mM Tris buffer (pH=7.4) followed by mixing. […] After incubation at 23° C. for 2h, the solutions were filtered using a membrane harvester using multiple washing of the membranes (3×). The filter disks were counted in scintillation cocktail affording the amount of displacement of tritiated ZM by the competitive binding compositions of this invention. Greater than a 5 point curve was used to generate IC50's and the number of experiments (n) is indicated in the column marked in Tables 3-4 below. The Chang-Prusoff equation was used to generate Ki's from the IC50 data.

Data set [2] addresses T2, A1 (Homo sapiens, UniProt P30542).
T2 sequence (P30542 1-326): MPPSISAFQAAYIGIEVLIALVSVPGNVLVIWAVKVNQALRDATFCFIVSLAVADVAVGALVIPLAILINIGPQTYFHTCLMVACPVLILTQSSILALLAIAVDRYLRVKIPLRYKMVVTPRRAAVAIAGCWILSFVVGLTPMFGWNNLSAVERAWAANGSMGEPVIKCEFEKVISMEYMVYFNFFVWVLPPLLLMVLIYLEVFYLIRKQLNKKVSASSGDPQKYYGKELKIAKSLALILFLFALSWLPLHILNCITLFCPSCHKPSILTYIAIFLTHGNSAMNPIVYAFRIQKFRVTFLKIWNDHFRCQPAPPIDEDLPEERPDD
The experiment in a line: Affinity for the A1 receptor (Ki column, no method described). Type of data set: binding. To be noted: compounds 1a-5a table.

This note sets out measurements from patent US20010051612A1, “2-Thioether A2A receptor agonists” (priority 2000, published 2001).

The term Ki denotes a dissociation constant, usually derived from enzyme kinetics or from competition with a known ligand. Read a low Ki as a stronger hold on the target. The term melting point denotes the temperature of the solid-liquid transition.

Some results are limits rather than exact numbers.

T1 sequence (K9IW67 1-409): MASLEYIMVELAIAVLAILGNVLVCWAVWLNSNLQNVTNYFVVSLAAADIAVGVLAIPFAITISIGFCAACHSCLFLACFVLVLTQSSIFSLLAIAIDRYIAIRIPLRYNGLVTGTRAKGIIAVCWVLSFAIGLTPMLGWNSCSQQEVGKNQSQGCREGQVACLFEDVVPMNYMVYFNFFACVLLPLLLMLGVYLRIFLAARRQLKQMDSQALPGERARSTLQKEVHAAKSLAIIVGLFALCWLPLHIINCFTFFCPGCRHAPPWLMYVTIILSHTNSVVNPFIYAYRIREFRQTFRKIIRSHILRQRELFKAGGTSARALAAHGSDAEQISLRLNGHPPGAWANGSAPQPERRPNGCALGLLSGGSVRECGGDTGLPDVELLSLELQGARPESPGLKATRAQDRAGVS

`Nc1nc(Sc2ccccc2)nc2c1ncn2[C@@H]1O[C@H](CO)[C@@H](O)[C@H]1O` [Compound 1, (4S, 2R, 3R, 5R)-2-(6-amino-2-phenylthiopurin-9-yl)-5-(hydroxymethyl)oxolane-3,4-diol] had a melting point of 137 to 139 °C. This compound also yielded an inhibitory constant (Ki) in data set [1] (Table 3, compounds 1-7) above 10000 nM.
`CCNC(=O)[C@H]1O[C@@H](n2cnc3c(N)nc(Sc4ccccc4)nc32)[C@H](O)[C@@H]1O` [Compound 1a, [(2S, 3S, 4R, 5R)-5-(6-amino-2-phenylthiopurin-9-yl)-3,4-dihydroxyoxolan-2yl]-N -ethylcarboxamide] displayed a melting point of 122 to 125 °C. In data set [1] (compounds 1a-5a), this compound yielded a Ki of 6120 nM.
The compound `Nc1nc(SCc2ccccc2)nc2c1ncn2[C@@H]1O[C@H](CO)[C@@H](O)[C@H]1O` [Compound 2, (4S, 2R. 3R, 5R)-2-(6-amino-2-phenylmethylthiopurin-9-yl)-5-(hydroxymethyl)-oxolane-3,4-diol] gave a Ki in data set [1] (Table 3, compounds 1-7) of 9540 nM.
Take `CCNC(=O)[C@H]1O[C@@H](n2cnc3c(N)nc(SCc4ccccc4)nc32)[C@H](O)[C@@H]1O` [Compound 2a, [(2S, 3S, 4R, 5R)-5-(6-amino-2-(phenylmethylthio)purin-9-yl)-3,4-dihydroxyoxolan-2yl]-N-ethylcarboxamide]: the melting point is 245 °C (dec.). The inhibition constant (Ki) in data set [1] (compounds 1a-5a) is above 10000 nM.
Turning to `CCNC(=O)[C@H]1O[C@@H](n2cnc3c(N)nc(SCCc4ccccc4)nc32)[C@H](O)[C@@H]1O` [Compound 3a, [(2S, 3S, 4R, 5R)-5-(6-amino-2-(phenylethylthio)purin-9-yl)-3,4-dihydroxyoxolan-2-yl]-N-ethylcarboxamide], the melting point lay in the range of 97 to 99 °C. The affinity in data set [1] (compounds 1a-5a), expressed as Ki, was 85 nM. For the same compound, the Ki in data set [2] is above 10000 nM.
For `Nc1nc(SCCCc2ccccc2)nc2c1ncn2[C@@H]1O[C@H](CO)[C@@H](O)[C@H]1O` [Compound 4, (4S, 2R, 3R, 5R)-2-(6-amino-2-phenylpropylthiopurin-9-yl)-5-(hydroxymethyl)oxolane-3,4-diol], in data set [1] (Table 3, compounds 1-7), the Ki is above 10000 nM.
In the case of `CCNC(=O)[C@H]1O[C@@H](n2cnc3c(N)nc(SCCCc4ccccc4)nc32)[C@H](O)[C@@H]1O` [Compound 4a, [(2S, 3S, 4R, 5R)-5-(6-amino-2-(phenylpropylthio)purin-9-yl)-3,4-dihydroxyoxolan-2-yl]-N-ethylcarboxamide], the melting point was in the range of 185 to 188 °C. The compound further came in with a Ki in data set [1] (compounds 1a-5a) of 6280 nM.
For the compound `CCCCCSc1nc(N)c2ncn([C@@H]3O[C@H](CO)[C@@H](O)[C@H]3O)c2n1` [Compound 5, (4S, 2R,3R, 5R)-2-(6-amino-2-pentyltiopurin-9-yl)-5-(hydroxymethymethyl)oxolane-3,4-diol], the melting point was 177 °C (dec.). Further, the Ki in data set [1] (Table 3, compounds 1-7) was above 10000 nM.
For the compound `CCCCCSc1nc(N)c2ncn([C@@H]3O[C@H](C(=O)NCC)[C@@H](O)[C@H]3O)c2n1` [Compound 5a, [(2S, 3S, 4R, 5R)-5-(6-amino-2-pentylthiopurin-9-yl)-3,4-dihydroxyoxolan-2-yl]-N-ethylcarboxamide], the melting point was > 270 °C (dec.). Besides, the Ki in data set [1] (compounds 1a-5a) came out at 4310 nM.
The compound `Nc1nc(SCCCCO)nc2c1ncn2[C@@H]1O[C@H](CO)[C@@H](O)[C@H]1O` [Compound 6, (4S, 2R, 3R, 5R)-2-(6-amino-2-(4-hydroxybutylthio)purin-9-yl)-5-(hydroxymethyl)oxolane-3,4-diol] came in with a melting point of 88 to 90 °C. In data set [1] (Table 3, compounds 1-7), this compound came in with an inhibition constant Ki above 100000 nM.
Taken in the same sequence, the figures for `Nc1nc(SC2CCCC2)nc2c1ncn2[C@@H]1O[C@H](CO)[C@@H](O)[C@H]1O` [Compound 7, (4S, 2R, 3R, 5R)-2-(6-amino-2-cyclopentylthiopurin-9-yl)-5-(hydroxymethyl)oxolane-3,4-diol] were 213 °C (dec.) and above 10000 nM.
